US5283271A, “3,5-diphenyl or substituted 3,5-diphenyl-1-hydroxy-1,2-dihydroimidazole-2-thiones” (Olin Corporation, priority 1992, dated 1994)
Values after ≈ are worked out from the molar mass of the structure shown. Where a name gives a salt, the structure may show the parent alone. Read-outs that look alike come from different tables or passages of the source.

Tests used:
Type in all cases: cell-based
Fusarium = test: Minimum Inhibitory Concentration (MIC), Fusarium; settings: 168 h, Sabouraud Dextrose Broth, 28° C., seven days (molds)
Experimental: (§1) Determination of the Minimum Inhibitory Concentrations (MIC's) for the Compounds Prepared in Part A
(§2) Solutions of the experimental compounds in dimethyl sulfoxide and an aqueous solution of sodium pyrithione were serially diluted in nutrient broth (Tryptic Soy Broth for bacteria and Sabouraud Dextrose Broth for fungi) in microtiter plates. Equal volumes of a broth supension of bacteria (10^6 CFU/ml) or fungi (10^5 cells or spores/ml) were added to each dilution, and the plates were incubated at 37° C. (bacteria and yeast) or 28° C. (molds). Bacteria, yeast and molds were incubated two, five and seven days respectively before determining the highest inhibitory dilution.

Aureobasidium pullulans = test: Minimum Inhibitory Concentration (MIC), Aureobasidium pullulans
Experimental: as §1, §2

Aspergillins niger = test: Minimum Inhibitory Concentration (MIC), Aspergillins niger; settings: 168 h
Experimental: as §1, §2

E. Coli = test: Minimum Inhibitory Concentration (MIC), E. Coli; settings: Escherichia coli, 48 h, Tryptic Soy Broth, 37° C., two days
Experimental: as §1, §2

Candida albicans = test: Minimum Inhibitory Concentration (MIC), Candida albicans; settings: 120 h
Experimental: as §1, §2

S. aureus = test: Minimum Inhibitory Concentration (MIC), S. aureus; settings: Staphylococcus aureus, 48 h, Tryptic Soy Broth, 37° C., two days
Experimental: as §1, §2

[1] = Sabouraud Dextrose Broth, read-out: MIC
[2] = Aspergillins niger, Sabouraud Dextrose Broth, 28° C., seven days (molds), read-out: MIC
[3] = Sabouraud Dextrose Broth, 37° C., five days (yeast), read-out: MIC

Row | SMILES | MIC (Fusarium) | MIC (Aureobasidium pullulans; [1]) | MIC (Aspergillins niger; [2]) | MIC (E. Coli) | MIC (Candida albicans; [3]) | MIC (S. aureus) | MIC (Aureobasidium pullulans) | MIC (Aspergillins niger) | MIC (Candida albicans)
1 | COc1ccc(-c2cn(-c3ccccc3)c(=S)n2O)cc1 [Compound 3, 5-(p-Methoxyphenyl)-3-phenyl-1-hydroxy-1,2-dihydroimidazole-2-thione] | 512 µg/mL (≈ 1720 µM) | 16 µg/mL (≈ 53.6 µM) | 512 µg/mL (≈ 1720 µM) | 32 µg/mL (≈ 107 µM) | 2 µg/mL (≈ 6.7 µM) | 32 µg/mL (≈ 107 µM) | – | – | –
2 | On1c(-c2ccccc2)cn(-c2ccccc2)c1=S [Compound 1, 3,5-diphenyl-1-hydroxy-1,2-dihydroimidazole-2-thione] | 16 µg/mL (≈ 59.6 µM) | 2 µg/mL (≈ 7.45 µM) | 8 µg/mL (≈ 29.8 µM) | 64 µg/mL (≈ 239 µM) | 2 µg/mL (≈ 7.45 µM) | 256 µg/mL (≈ 954 µM) | – | – | –
3 | COc1ccc(-n2cc(-c3ccccc3)n(O)c2=S)cc1 [Compound 2, 3-(p-methoxyphenyl)-5-phenyl-1-hydroxy-1,2-dihydroimidazole-2-thione] | 1020 µg/mL (≈ 3430 µM) | 8 µg/mL (≈ 26.8 µM) | 64 µg/mL (≈ 215 µM) | 32 µg/mL (≈ 107 µM) | 4 µg/mL (≈ 13.4 µM) | 2050 µg/mL (≈ 6860 µM) | – | – | –
4 | [O-][n+]1ccccc1S [Pyrithione, sodium salt, sodium pyrithione, reference compound] | 64 to 128 µg/mL | – | – | 8 to 32 µg/mL | – | 4 to 8 µg/mL | 2 to 32 µg/mL | 32 to 128 µg/mL | 4 to 16 µg/mL
